What was measured:
[1] = molecular target: Mitogen-activated protein kinase kinase kinase kinase 3 (Homo sapiens) (UniProt Q8IVH8); conditions: Compound concentration 1000.0 nM
[2] = molecular target: Cyclin-G-associated kinase (Homo sapiens) (UniProt O14976); conditions: Compound concentration 1000.0 nM
[3] = molecular target: RAF proto-oncogene serine/threonine-protein kinase (Homo sapiens) (UniProt P04049); conditions: Compound concentration 1000.0 nM
[4] = molecular target: Serine/threonine-protein kinase LATS1 (Homo sapiens) (UniProt O95835); conditions: Compound concentration 1000.0 nM
[5] = test system: Receptor-type tyrosine-protein kinase FLT3 (Homo sapiens), P36888 [K663Q]; conditions: Compound concentration 1000.0 nM
[6] = test system: Mast/stem cell growth factor receptor Kit (Homo sapiens), P10721 [V559D,T670I]; conditions: Compound concentration 1000.0 nM
[7] = molecular target: Serine/threonine-protein kinase WNK2 (Homo sapiens) (UniProt Q9Y3S1); conditions: Compound concentration 1000.0 nM
[8] = molecular target: Fibroblast growth factor receptor 2 (Homo sapiens) (UniProt P21802); conditions: Compound concentration 1000.0 nM
[9] = molecular target: Bone morphogenetic protein receptor type-1B (Homo sapiens) (UniProt O00238); conditions: Compound concentration 1000.0 nM
[10] = molecular target: Translocator protein (Rattus norvegicus) (UniProt P16257); assay: BZD (peripheral) Eurofins-Cerep binding assay; set-up: ligand concentration 0.2 nM; conditions: filed as antagonist, Compound concentration 10.0 uM
[11] = molecular target: Cyclin-dependent kinase 8 (Homo sapiens) (UniProt P49336); conditions: Compound concentration 1000.0 nM
[12] = molecular target: Receptor-type tyrosine-protein kinase FLT3 (Homo sapiens) (UniProt P36888); conditions: Compound concentration 1000.0 nM
[13] = molecular target: Mitogen-activated protein kinase 3 (Homo sapiens) (UniProt P27361); conditions: Compound concentration 1000.0 nM
[14] = molecular target: Serine/threonine-protein kinase ULK2 (Homo sapiens) (UniProt Q8IYT8); conditions: Compound concentration 1000.0 nM
[15] = molecular target: Phosphatidylinositol 5-phosphate 4-kinase type-2 gamma (Homo sapiens) (UniProt Q8TBX8); conditions: Compound concentration 1000.0 nM
[16] = molecular target: D(1A) dopamine receptor (Homo sapiens) (UniProt P21728); assay: D1 (h) Eurofins-Cerep binding assay; set-up: ligand concentration 0.3 nM; conditions: filed as antagonist, Compound concentration 10.0 uM
[17] = test system: Phosphatidylinositol 4,5-bisphosphate 3-kinase catalytic subunit alpha isoform (Homo sapiens), P42336 [Q546K]; conditions: Compound concentration 1000.0 nM
[18] = test system: Epidermal growth factor receptor (Homo sapiens), P00533 [UNDEFINED MUTATION]; conditions: Compound concentration 1000.0 nM
[19] = molecular target: Mitogen-activated protein kinase kinase kinase 13 (Homo sapiens) (UniProt O43283); conditions: Compound concentration 1000.0 nM
[20] = molecular target: Ephrin type-A receptor 8 (Homo sapiens) (UniProt P29322); conditions: Compound concentration 1000.0 nM
[21] = test system: Tyrosine-protein kinase ABL1 (Homo sapiens), P00519 [H396P]; conditions: Compound concentration 1000.0 nM
[22] = molecular target: Tyrosine-protein kinase Fer (Homo sapiens) (UniProt P16591); conditions: Compound concentration 1000.0 nM
[23] = molecular target: Serine/threonine-protein kinase PLK4 (Homo sapiens) (UniProt O00444); conditions: Compound concentration 1000.0 nM
[24] = test system: Hepatocyte growth factor receptor (Homo sapiens), P08581 [M1250T]; conditions: Compound concentration 1000.0 nM
[25] = test system: Tyrosine-protein kinase ABL1 (Homo sapiens), P00519 [E255K]; conditions: Compound concentration 1000.0 nM
[26] = molecular target: Platelet-derived growth factor receptor alpha (Homo sapiens) (UniProt P16234); conditions: Compound concentration 1000.0 nM
[27] = molecular target: Phosphatidylinositol 4-kinase beta (Homo sapiens) (UniProt Q9UBF8); conditions: Compound concentration 1000.0 nM
[28] = molecular target: T1, Muscarinic acetylcholine receptor M4 (Homo sapiens) (UniProt P08173); conditions: Compound concentration 10.0 uM
T1 sequence (whole entry): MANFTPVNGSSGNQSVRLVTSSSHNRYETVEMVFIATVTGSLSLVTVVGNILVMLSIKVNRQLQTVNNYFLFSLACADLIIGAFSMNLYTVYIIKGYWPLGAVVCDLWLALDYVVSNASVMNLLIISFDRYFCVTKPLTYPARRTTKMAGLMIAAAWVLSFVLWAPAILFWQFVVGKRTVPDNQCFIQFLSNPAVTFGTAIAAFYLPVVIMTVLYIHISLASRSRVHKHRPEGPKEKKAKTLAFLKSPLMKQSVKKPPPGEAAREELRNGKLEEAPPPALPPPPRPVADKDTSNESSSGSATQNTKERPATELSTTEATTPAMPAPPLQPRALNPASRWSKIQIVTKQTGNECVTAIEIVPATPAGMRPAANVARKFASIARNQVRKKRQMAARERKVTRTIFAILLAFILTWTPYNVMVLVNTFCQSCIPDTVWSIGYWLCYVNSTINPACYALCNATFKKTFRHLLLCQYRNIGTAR

[29] = molecular target: Serine/threonine-protein kinase PRP4 homolog (Homo sapiens) (UniProt Q13523); conditions: Compound concentration 1000.0 nM
[30] = molecular target: Histamine H1 receptor (Homo sapiens) (UniProt P35367); assay: H1 (h) Eurofins-Cerep binding assay; set-up: ligand concentration 1 nM; conditions: filed as antagonist, Compound concentration 10.0 uM
[31] = molecular target: Ribosomal protein S6 kinase alpha-3 (Homo sapiens) (UniProt P51812); conditions: Compound concentration 1000.0 nM
[32] = molecular target: Serine/threonine-protein kinase haspin (Homo sapiens) (UniProt Q8TF76); conditions: Compound concentration 1000.0 nM
[33] = molecular target: Serine/threonine-protein kinase Nek10 (Homo sapiens) (UniProt Q6ZWH5); conditions: Compound concentration 1000.0 nM
[34] = molecular target: Serine/threonine-protein kinase 16 (Homo sapiens) (UniProt O75716); conditions: Compound concentration 1000.0 nM
[35] = molecular target: Calcium/calmodulin-dependent protein kinase kinase 2 (Homo sapiens) (UniProt Q96RR4); conditions: Compound concentration 1000.0 nM
[36] = molecular target: Tyrosine-protein kinase ABL1 (Homo sapiens) (UniProt P00519); conditions: Compound concentration 1000.0 nM
[37] = molecular target: Tyrosine-protein kinase Lyn (Homo sapiens) (UniProt P07948); conditions: Compound concentration 1000.0 nM
[38] = molecular target: Tyrosine-protein kinase Fes/Fps (Homo sapiens) (UniProt P07332); conditions: Compound concentration 1000.0 nM

Chain of Serine/threonine-protein kinase PRP4 homolog (Homo sapiens) (Q13523 whole entry): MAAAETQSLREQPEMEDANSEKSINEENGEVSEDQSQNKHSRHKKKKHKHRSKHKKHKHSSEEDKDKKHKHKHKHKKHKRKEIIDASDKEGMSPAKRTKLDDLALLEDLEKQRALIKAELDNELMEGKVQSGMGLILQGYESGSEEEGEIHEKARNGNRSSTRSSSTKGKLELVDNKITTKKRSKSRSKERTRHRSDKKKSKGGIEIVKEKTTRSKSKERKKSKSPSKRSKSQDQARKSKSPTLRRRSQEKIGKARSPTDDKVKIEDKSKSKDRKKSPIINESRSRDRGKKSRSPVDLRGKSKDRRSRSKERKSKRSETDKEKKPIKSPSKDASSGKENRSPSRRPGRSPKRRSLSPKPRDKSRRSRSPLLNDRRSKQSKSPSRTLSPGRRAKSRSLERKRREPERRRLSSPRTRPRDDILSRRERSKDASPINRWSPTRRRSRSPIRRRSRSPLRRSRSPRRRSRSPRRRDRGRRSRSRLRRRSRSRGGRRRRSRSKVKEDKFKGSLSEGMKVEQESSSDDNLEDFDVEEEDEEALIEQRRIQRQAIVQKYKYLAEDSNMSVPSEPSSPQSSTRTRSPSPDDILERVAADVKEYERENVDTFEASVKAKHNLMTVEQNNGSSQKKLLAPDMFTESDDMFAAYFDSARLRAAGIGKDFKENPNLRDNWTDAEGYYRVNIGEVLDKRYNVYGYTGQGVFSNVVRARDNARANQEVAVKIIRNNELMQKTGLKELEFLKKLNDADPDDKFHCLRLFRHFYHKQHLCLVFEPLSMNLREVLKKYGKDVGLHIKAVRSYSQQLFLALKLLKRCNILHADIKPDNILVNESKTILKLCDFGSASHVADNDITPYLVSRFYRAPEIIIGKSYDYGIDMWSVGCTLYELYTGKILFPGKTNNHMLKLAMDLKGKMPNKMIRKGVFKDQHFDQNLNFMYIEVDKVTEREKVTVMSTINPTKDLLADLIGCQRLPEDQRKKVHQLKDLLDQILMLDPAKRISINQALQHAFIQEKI
Chain of Serine/threonine-protein kinase LATS1 (Homo sapiens) (O95835 whole entry): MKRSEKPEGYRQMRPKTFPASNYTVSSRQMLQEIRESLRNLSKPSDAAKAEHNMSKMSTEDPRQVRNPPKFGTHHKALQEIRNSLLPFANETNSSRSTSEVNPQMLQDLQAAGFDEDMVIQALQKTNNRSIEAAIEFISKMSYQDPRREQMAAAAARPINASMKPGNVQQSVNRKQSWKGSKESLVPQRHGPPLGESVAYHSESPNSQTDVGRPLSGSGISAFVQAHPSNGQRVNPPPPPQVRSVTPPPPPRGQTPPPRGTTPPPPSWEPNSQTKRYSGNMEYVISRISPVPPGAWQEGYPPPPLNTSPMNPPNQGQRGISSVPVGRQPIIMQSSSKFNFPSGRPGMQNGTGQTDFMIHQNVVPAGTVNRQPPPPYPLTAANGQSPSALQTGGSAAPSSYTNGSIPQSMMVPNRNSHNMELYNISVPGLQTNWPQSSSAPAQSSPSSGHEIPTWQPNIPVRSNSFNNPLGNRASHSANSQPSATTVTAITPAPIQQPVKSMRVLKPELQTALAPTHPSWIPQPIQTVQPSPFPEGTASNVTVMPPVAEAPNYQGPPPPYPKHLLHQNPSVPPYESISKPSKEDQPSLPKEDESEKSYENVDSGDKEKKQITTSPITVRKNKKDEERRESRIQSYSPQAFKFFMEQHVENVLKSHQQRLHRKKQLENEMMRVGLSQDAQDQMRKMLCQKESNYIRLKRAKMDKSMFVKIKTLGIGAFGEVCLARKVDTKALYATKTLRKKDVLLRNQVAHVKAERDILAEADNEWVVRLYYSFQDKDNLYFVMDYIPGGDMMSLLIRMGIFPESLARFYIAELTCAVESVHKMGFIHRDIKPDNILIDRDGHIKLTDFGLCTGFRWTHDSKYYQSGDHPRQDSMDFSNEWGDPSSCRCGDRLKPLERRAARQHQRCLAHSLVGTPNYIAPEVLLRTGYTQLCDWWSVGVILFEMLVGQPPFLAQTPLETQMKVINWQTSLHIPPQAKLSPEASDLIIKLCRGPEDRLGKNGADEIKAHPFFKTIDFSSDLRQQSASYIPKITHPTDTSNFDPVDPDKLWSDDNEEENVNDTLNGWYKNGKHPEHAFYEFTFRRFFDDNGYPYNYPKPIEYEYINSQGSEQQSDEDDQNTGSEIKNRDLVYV
Chain of Mast/stem cell growth factor receptor Kit (Homo sapiens), P10721 [V559D,T670I] (P10721 whole entry V559D/T670I): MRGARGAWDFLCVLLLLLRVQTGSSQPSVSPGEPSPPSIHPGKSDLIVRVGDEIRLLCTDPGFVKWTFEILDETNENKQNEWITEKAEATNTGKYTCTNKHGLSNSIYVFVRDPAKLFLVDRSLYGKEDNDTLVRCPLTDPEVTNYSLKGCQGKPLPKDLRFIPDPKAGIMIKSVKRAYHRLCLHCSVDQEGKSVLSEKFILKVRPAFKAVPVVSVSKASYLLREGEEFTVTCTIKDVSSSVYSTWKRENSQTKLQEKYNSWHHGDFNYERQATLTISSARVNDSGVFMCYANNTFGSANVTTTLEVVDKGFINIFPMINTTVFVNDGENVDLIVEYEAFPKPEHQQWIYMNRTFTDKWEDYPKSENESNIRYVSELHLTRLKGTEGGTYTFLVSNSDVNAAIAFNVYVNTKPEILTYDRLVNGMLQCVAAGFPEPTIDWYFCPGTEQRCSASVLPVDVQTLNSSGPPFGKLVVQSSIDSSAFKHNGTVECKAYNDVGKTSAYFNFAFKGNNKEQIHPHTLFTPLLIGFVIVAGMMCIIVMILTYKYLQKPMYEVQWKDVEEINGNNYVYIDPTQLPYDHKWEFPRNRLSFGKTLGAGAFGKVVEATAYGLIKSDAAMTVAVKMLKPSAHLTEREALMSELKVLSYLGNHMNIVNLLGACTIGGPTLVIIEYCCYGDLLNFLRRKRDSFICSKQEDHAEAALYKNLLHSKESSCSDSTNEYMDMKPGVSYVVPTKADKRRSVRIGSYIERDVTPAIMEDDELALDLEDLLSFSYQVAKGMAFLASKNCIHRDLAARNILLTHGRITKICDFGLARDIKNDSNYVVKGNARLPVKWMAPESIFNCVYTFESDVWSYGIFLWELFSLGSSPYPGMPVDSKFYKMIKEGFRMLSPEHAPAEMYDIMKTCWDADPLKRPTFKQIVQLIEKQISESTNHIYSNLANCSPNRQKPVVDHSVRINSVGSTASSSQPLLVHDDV
Chain of Serine/threonine-protein kinase haspin (Homo sapiens) (Q8TF76 whole entry): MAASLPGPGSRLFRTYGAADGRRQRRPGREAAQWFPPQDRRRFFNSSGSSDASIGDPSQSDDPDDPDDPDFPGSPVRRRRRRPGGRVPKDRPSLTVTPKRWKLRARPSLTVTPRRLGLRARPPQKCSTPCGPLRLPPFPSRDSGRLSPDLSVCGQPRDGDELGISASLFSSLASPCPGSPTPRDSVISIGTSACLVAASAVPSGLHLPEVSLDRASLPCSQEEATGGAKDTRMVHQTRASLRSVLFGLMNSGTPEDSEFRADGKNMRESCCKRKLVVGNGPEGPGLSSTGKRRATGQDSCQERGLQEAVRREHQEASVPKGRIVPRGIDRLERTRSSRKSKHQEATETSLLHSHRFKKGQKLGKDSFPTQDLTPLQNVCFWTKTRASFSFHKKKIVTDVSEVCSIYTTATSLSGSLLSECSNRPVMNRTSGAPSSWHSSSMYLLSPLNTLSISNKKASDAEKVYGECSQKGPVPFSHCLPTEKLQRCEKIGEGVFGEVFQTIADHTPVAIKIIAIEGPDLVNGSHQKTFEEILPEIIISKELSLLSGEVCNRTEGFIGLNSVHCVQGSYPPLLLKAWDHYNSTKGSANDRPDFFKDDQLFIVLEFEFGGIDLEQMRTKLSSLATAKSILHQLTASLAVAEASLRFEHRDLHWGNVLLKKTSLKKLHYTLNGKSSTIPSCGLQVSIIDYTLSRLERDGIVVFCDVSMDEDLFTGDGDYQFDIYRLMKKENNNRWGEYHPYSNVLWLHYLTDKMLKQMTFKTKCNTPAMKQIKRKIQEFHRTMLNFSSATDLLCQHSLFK
Chain of Platelet-derived growth factor receptor alpha (Homo sapiens) (P16234 whole entry): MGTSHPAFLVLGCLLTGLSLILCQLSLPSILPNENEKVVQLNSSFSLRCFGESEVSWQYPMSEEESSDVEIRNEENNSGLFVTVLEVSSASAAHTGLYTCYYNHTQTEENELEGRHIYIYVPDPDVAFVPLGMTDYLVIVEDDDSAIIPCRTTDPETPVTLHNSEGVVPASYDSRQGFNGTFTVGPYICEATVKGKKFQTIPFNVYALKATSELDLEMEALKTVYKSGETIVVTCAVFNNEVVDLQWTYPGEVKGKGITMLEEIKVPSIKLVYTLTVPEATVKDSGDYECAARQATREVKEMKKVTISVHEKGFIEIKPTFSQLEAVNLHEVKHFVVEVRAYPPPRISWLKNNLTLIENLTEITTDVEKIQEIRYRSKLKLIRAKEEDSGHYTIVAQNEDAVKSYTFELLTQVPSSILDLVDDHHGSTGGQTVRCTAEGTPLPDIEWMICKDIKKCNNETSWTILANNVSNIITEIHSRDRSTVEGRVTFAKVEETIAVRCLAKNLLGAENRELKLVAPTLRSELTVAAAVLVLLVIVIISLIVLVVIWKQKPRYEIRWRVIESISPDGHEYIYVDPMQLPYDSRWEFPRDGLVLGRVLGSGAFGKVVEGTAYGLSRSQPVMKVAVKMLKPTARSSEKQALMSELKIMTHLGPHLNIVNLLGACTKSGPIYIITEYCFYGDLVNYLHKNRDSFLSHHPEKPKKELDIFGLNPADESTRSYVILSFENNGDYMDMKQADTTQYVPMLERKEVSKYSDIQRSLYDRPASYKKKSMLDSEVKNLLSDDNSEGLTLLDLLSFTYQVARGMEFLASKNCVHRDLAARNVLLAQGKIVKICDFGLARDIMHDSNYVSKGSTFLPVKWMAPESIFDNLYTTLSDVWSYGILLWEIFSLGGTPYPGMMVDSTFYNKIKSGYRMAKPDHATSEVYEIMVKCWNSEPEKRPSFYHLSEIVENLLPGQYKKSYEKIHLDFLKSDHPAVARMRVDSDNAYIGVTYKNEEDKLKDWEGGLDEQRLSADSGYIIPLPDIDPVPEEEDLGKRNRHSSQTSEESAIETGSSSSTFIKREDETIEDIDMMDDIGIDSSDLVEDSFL

| Structure (SMILES) | residual activity [1] [%] | residual activity [2] [%] | residual activity [3] [%] | residual activity [4] [%] | residual activity [5] [%] | residual activity [6] [%] | residual activity [7] [%] | residual activity [8] [%] | residual activity [9] [%] | % Inhibition of Control Specific Binding (Mean n=2) [10] [%] | residual activity [11] [%] | residual activity [12] [%] | residual activity [13] [%] | residual activity [14] [%] | residual activity [15] [%] | % Inhibition of Control Specific Binding (Mean n=2) [16] [%] | residual activity [17] [%] | residual activity [18] [%] | residual activity [19] [%] | residual activity [20] [%] | other results |
| --- | --- | --- | --- | --- | --- | --- | --- | --- | --- | --- | --- | --- | --- | --- | --- | --- | --- | --- | --- | --- | --- |
| O=C(NS(=O)(=O)c1ccc(NCC2CCOCC2)c([N+](=O)[O-])c1)c1ccc(N2CCN(Cc3ccc(C(F)(F)F)cc3-c3ccc(Cl)cc3)CC2)cc1Oc1cnc2[nH]ccc2c1 [A-1210227] | 92 | 100 | 100 | 100 | 100 | 100 | 75 | 100 | 89 | 36 | 100 | 80 | 98 | 100 | 100 | 6.4 | 100 | 81 | 91 | 84 | residual activity [21]: 94%; residual activity [22]: 94%; residual activity [23]: 98%; residual activity [24]: 86%; residual activity [25]: 91%; residual activity [26]: 100%; residual activity [27]: 79%; inhibition [28]: -5.79%; residual activity [29]: 100%; % Inhibition of Control Specific Binding (Mean n=2) [30]: 11.2%; residual activity [31]: 100%; residual activity [32]: 85%; residual activity [33]: 100%; residual activity [34]: 91%; residual activity [35]: 99%; residual activity [36]: 86%; residual activity [37]: 99%; residual activity [38]: 100% |
| CO[C@H]1CC[C@H](CNc2ccc(S(=O)(=O)NC(=O)c3ccc(N4CCN(CC5=C(c6ccc(Cl)cc6)CC(C)(C)CC5)CC4)cc3Oc3cnc4[nH]ccc4c3)cc2[N+](=O)[O-])CC1 [A-1211212] | 99 | 99 | 94 | 87 | 91 | 88 | 76 | 100 | 92 | 44.9 | 91 | 100 | 80 | 100 | 85 | 0.7 | 100 | 61 | 89 | 84 | residual activity [21]: 92%; residual activity [22]: 67%; residual activity [23]: 100%; residual activity [24]: 96%; residual activity [25]: 74%; residual activity [26]: 100%; residual activity [27]: 97%; inhibition [28]: -0.31%; residual activity [29]: 100%; % Inhibition of Control Specific Binding (Mean n=2) [30]: -2.2%; residual activity [31]: 100%; residual activity [32]: 88%; residual activity [33]: 100%; residual activity [34]: 79%; residual activity [35]: 81%; residual activity [36]: 71%; residual activity [37]: 74%; residual activity [38]: 100% |

Reference: ChEMBL document CHEMBL4507310, “Data for DCP probe A-1211212” (2021)
